Laboratory results taken from ChEMBL document CHEMBL4219027, “Lead Optimization of Benzoxepin-Type Selective Estrogen Receptor (ER) Modulators and Downregulators with Subtype-Specific ERα and ERβ Activity” (J Med Chem, 2018).
Calls of active or inactive are those of the source. The rule behind the calls is not given here.

Experiments:
[1] = target: T1, Estrogen receptor (Homo sapiens, UniProt P03372); experiment: Displacement of fluorescein-labeled estradiol (fluoromone) from human recombinant full-length estrogen receptor alpha after 2 hrs by fluorescence polarization assay
T1 sequence (P03372 whole entry): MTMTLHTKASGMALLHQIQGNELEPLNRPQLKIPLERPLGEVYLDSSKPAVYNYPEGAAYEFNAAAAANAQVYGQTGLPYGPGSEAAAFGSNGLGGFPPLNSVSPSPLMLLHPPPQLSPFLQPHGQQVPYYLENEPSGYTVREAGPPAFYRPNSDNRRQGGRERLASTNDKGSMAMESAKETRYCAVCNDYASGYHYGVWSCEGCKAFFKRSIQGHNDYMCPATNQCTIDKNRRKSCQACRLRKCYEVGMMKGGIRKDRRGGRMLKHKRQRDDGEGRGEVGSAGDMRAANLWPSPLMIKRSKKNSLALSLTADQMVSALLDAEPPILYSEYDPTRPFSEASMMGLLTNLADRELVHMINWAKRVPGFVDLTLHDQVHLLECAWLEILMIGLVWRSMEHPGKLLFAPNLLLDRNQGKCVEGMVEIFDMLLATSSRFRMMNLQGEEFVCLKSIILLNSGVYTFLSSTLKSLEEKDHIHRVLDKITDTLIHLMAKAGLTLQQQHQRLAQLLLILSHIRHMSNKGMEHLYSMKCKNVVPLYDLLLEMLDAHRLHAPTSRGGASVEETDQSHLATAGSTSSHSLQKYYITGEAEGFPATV

[2] = target: T2, Estrogen receptor beta (Homo sapiens, UniProt Q92731)
[3] = organism: Homo sapiens; experiment: Selectivity index, ratio of IC50 for human recombinant full-length estrogen receptor beta to IC50 for human recombinant full-length estrogen receptor alpha
[4] = tested on: MCF7; experiment: cells; details: Homo sapiens, MCF7, 72 h
Description: Antiproliferative activity against ER-dependent human MCF7 cells after 72 hrs by MTT assay

[5] = target: T3, Estrogen receptor (Homo sapiens, UniProt Q92731+P03372); experiment: Antagonist activity at estrogen receptor alpha/beta in human Ishikawa cells after 72 hrs by alkaline phosphatase assay; format: cell-based
[6] = target: T4, Estrogen receptor (Homo sapiens) (UniProt P03372); experiment: Downregulation of estrogen receptor alpha protein levels in human MCF7 cell lysate at 10 uM after 24 hrs by Western blot analysis
T4 sequence (whole entry): T1 sequence (P03372 whole entry)

[7] = target: T2, Estrogen receptor beta; experiment: Antagonist activity at estrogen receptor beta in human Ishikawa cells after 72 hrs by alkaline phosphatase assay; format: cell-based
[8] = target: T2, Estrogen receptor beta; experiment: Estrogenic activity at estrogen receptor beta in human Ishikawa cells at 1 uM after 72 hrs by alkaline phosphatase assay relative to estradiol; format: cell-based
[9] = tested on: MCF-10A; experiment: Cytotoxicity against human MCF10A cells assessed as reduction in cell viability at 1 to 10 uM after 24 to 48 hrs by CytoTox 96 non-radioactive LDH cytotoxicity assay; format: cell-based
[10] = target: T2, Estrogen receptor beta; experiment: Downregulation of estrogen receptor beta protein levels in human MCF7 cell lysate at 10 uM after 24 hrs by Western blot analysis
[11] = target: estrogen receptor alpha/beta (Homo sapiens, UniProt P03372+Q92731); experiment: Estrogenic activity at estrogen receptor alpha/beta in human Ishikawa cells at 100 uM after 72 hrs by alkaline phosphatase assay relative to estradiol; format: ADME, cell-based; details: read-out: Activity
[12] = target: T3, Estrogen receptor; experiment: Estrogenic activity at estrogen receptor alpha/beta in human Ishikawa cells at 0.01 uM after 72 hrs by alkaline phosphatase assay relative to estradiol; format: ADME, cell-based
[13] = tested on: MCF7; experiment: cells; details: Homo sapiens
Description: Cytotoxicity against human MCF7 cells assessed as reduction in cell viability after 3 to 12 days by MTT assay

[14] = tested on: MCF-10A; experiment: Cytotoxicity against human MCF10A cells assessed as reduction in cell viability at 1 to 2 uM after 24 to 48 hrs by CytoTox 96 non-radioactive LDH cytotoxicity assay; format: cell-based
[15] = tested on: MCF-10A; experiment: Cytotoxicity against human MCF10A cells assessed as reduction in cell viability at 5 uM after 24 hrs by CytoTox 96 non-radioactive LDH cytotoxicity assay; format: cell-based
[16] = tested on: MCF-10A; experiment: Cytotoxicity against human MCF10A cells assessed as reduction in cell viability at 10 uM after 24 to 48 hrs by CytoTox 96 non-radioactive LDH cytotoxicity assay; format: cell-based
[17] = target: T3, Estrogen receptor; experiment: Estrogenic activity at estrogen receptor alpha/beta in human Ishikawa cells at 10 uM after 72 hrs by alkaline phosphatase assay relative to estradiol; format: ADME, cell-based

T2 sequence (Q92731 whole entry): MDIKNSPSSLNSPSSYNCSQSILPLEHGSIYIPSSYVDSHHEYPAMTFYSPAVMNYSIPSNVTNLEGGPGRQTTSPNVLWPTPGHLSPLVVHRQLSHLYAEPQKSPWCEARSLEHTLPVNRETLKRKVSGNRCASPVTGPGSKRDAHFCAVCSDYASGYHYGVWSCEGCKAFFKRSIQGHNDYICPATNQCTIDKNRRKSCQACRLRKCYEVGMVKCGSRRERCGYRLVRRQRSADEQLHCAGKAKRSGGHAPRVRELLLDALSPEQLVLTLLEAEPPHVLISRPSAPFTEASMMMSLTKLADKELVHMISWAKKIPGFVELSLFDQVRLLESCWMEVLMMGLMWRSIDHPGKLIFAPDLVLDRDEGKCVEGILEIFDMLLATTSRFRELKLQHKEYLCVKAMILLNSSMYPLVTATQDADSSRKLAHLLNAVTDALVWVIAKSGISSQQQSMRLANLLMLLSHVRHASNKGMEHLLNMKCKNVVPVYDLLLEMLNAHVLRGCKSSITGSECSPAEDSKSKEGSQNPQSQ

Row | IC50 [1] [nM] | IC50 [2] [nM] | Ratio IC50 [3] | IC50 [4] [nM] | SMILES | further results
1 | 14 | 72 | 5.2 | 260 | O=C(O)/C=C/c1ccc(C2=C(c3ccc(O)cc3)CCOc3cc(F)ccc32)cc1 | IC50 [5]: 1390 nM
2 | 147 | 1.23 | 0.008 | > 20000 | O=C(O)CCCOc1ccc(C2=C(c3ccc(O)cc3)CCOc3cc(F)ccc32)cc1 | Activity [6]: inactive; IC50 [7]: 430 nM; Activity [8]: 3.2%; Activity [9]: Non-Toxic; Activity [10]: Active
3 | 1020 | 585 | 0.58 | 8800 | CCN(CC)CCNC(=O)/C=C/c1ccc(C2=C(c3ccc(O)cc3)CCOc3cc(F)ccc32)cc1 | –
4 | 349 | 43 | 0.12 | 13000 | CCN(CC)C(=O)/C=C/c1ccc(C2=C(c3ccc(O)cc3)CCOc3cc(F)ccc32)cc1 | activity at 72 h, 100 µM [11]: 10%; IC50 [5]: 9.8 nM
5 | – | – | – | 700 | CCNC(=O)/C=C/c1ccc(C2=C(c3ccc(O)cc3)CCOc3cc(F)ccc32)cc1 | –
6 | 74 | 72 | 1 | 8400 | O=C(/C=C/c1ccc(C2=C(c3ccc(O)cc3)CCOc3cc(F)ccc32)cc1)N1CCN(Cc2ccccc2)CC1 | –
7 | 57 | 354 | 6.3 | 480 | CN1CCN(C(=O)/C=C/c2ccc(C3=C(c4ccc(O)cc4)CCOc4cc(F)ccc43)cc2)CC1 | –
8 | 23 | 119 | 5.3 | > 20000 | COc1ccc2c(c1)OCCC(c1ccc(O)cc1)=C2c1ccc(/C=C/C(=O)O)cc1 | Activity [12]: 15.8%; IC50 [5]: > 1000 nM
9 | – | – | – | 1300 | CCC(=C(c1ccc(O)cc1)c1ccc(/C=C/C(=O)O)cc1)c1ccccc1 | IC50 [13]: 100 to 1000 nM
10 | 22400 | 14300 | 0.6 | 12000 | Oc1ccc(C2=C(c3ccc(/C=C/c4ccccc4)cc3)c3ccc(F)cc3OCC2)cc1 | –
11 | 21 | 46 | 2.2 | 21000 | O=C(O)/C=C/c1ccc(C2=C(c3ccc(O)cc3)CCOc3ccccc32)cc1 | IC50 [5]: 670 nM
12 | 429 | 1010 | 2.4 | > 20000 | COc1ccc2c(c1)OCCC(c1ccc(O)cc1)=C2c1ccc(OCC(=O)O)cc1 | –
13 | 11.7 | 0.94 | 0.087 | 1300 | O=C(/C=C/c1ccc(C2=C(c3ccc(O)cc3)CCOc3cc(F)ccc32)cc1)Nc1ccccc1 | –
14 | 67 | 2.4 | 0.038 | 14000 | O=C(/C=C/c1ccc(C2=C(c3ccc(O)cc3)CCOc3cc(F)ccc32)cc1)N1CCCC1 | –
15 | 634 | 34 | 0.054 | > 20000 | O=C(O)COc1ccc(C2=C(c3ccc(O)cc3)CCOc3cc(F)ccc32)cc1 | –
16 | 71.6 | 0.55 | 0.008 | 1600 | O=C(O)/C=C/C=C/c1ccc(C2=C(c3ccc(O)cc3)CCOc3cc(F)ccc32)cc1 | Activity [6]: Active; Activity [14]: Non-Toxic; Activity [15]: 50%; Activity [10]: Active; Activity [16]: Toxic
17 | 407 | 395 | – | – | O=Cc1ccc(C2=C(c3ccc(O)cc3)CCOc3cc(F)ccc32)cc1 | –
18 | 59 | 175 | 3 | 890 | CC(=O)/C=C/c1ccc(C2=C(c3ccc(O)cc3)CCOc3cc(F)ccc32)cc1 | IC50 [5]: 450 nM
19 | 14 | 25 | 1.9 | 9500 | O=C(/C=C/c1ccc(C2=C(c3ccc(O)cc3)CCOc3cc(F)ccc32)cc1)N1CCNCC1 | –
20 | 104 | 447 | 4.2 | 970 | O=C(/C=C/c1ccc(C2=C(c3ccc(O)cc3)CCOc3cc(F)ccc32)cc1)c1ccccc1 | –
21 | 48 | 203 | 4.3 | 1050 | Cc1ccc(N2CCN(C(=O)/C=C/c3ccc(C4=C(c5ccc(O)cc5)CCOc5cc(F)ccc54)cc3)CC2)cc1 | –
22 | 4.1 | 3.1 | 0.8 | 95 | O=C(O)/C=C/c1ccc(C2=C(c3ccc(O)cc3)CCSc3cc(F)ccc32)cc1 | IC50 [5]: 180 nM; Activity [17]: 1.6%

Row | SMILES | IC50 [1] [nM] | IC50 [2] [nM] | Ratio IC50 [3] | IC50 [4] [nM] | further results
23 | CCC(=C(c1ccc(O)cc1)c1ccc(OCCN(C)C)cc1)c1ccccc1 | – | – | – | 110 | –
